Measurements from US5532231A, “Antibacterial agent” (priority 1994, dated 1996).

Columns and labels:
Klebsiella Gr47 = assay: Antimicrobial spectrum, liquid media, viable cell count; type: cell-based; settings: saturating concentrations; hospital strain
Method: (§1) Saturated solutions of TA and Focusin were prepared by adding 1.14 μg TA and 7 μg Focusin to 1 ml LB (final conc. of 1% ethanol). About 10^5 bacteria of various strains were then added. The control was bacteria in the same medium with no antibacterial agents. The bacteria were introduced at 37° C. with shaking at 100 rpm. When the control became turbid, viable cell count was performed on LB agar plates. Growth inhibition is presented as percentage of the no antibiotic control.

Proteus vulgaris = assay: as above; type: cell-based; settings: saturating concentrations
Method: as §1

Serratia marcescens = assay: as above; type: cell-based; settings: saturating concentrations
Method: as §1

Citrobacter diversus = assay: as above; type: cell-based; settings: saturating concentrations
Method: as §1

Helicobacter pilori = assay: as above; type: cell-based; settings: saturating concentrations
Method: as §1

Salmonella thyphimurium = assay: as above; type: cell-based; settings: saturating concentrations
Method: as §1

Klebsiella sp = assay: as above; type: cell-based; settings: saturating concentrations; hospital strain
Method: as §1

Erwinia herbicola = assay: as above; type: cell-based; settings: saturating concentrations
Method: as §1

Klebsiella pneumoniae = assay: as above; type: cell-based; settings: saturating concentrations; hospital strain
Method: as §1

Staphylococcus albus = assay: as above; type: cell-based
Method: as §1

Providencia strautii = assay: as above; type: cell-based; settings: saturating concentrations
Method: as §1

Enterobacter = assay: as above; type: cell-based; settings: saturating concentrations
Method: as §1

Pseudomonas aeruginosa = assay: as above; type: cell-based; settings: saturating concentrations
Method: as §1

Bacillus subtilis = assay: as above; type: cell-based; settings: saturating concentrations
Method: as §1

E. coli ESS Kan^r [1] = assay: Paper disc filter antibiotic assay (zone of inhibition); type: cell-based, Escherichia coli; settings: paper disc
Method: Escherichia coli ESS Kan^r, is a kanamycin resistant strain of E. coli ESS, derived by transducing E. coli ESS with P1:TnV, Kan^r. This strain was used for the standard antibiotic assays.
LB Kan medium was solidified by 1.5% Bacto agar (Difco). For the antibiotic assay, Nutrient Broth agar plates were used. NB medium is 0.8% Nutrient Broth (Difco) containing 0.5% NaCl (Merck). NB was solidified by 1.8% Bacto agar (Difco). The NB plates were overlaid by 3.5 ml NB soft agar (0.9% Bacto agar) mixed with 0.1 ml E. coli ESS Kan^r overnight culture.
(§2) Antibiotic activity against E. coli ESS Kan^r was determined by the paper disc filter assay (Leo et al., 1945). Unknown quantities of antibiotic TA or Focusin, dissolved in ethanol, saline or NB were applied to paper disc filters (6 mm diameter; Schleicher and Schull). After allowing the ethanol to evaporate in the hood for about 15 mins, the dry filters were placed on nutrient broth plates which had been overlaid with an overnight culture of E. coli ESS Kan^r as described above.
(§3) The diameter of the zone of inhibition was recorded after 18 hours in incubation at 37° C. The concentration of the antibacterial agents were determined from a standard inhibition curve prepared with known quantities of TA and Focusin.

[2] = tested on: Gram-positive and Gram-negative bacteria; settings: literature; cited from earlier work
Mycobacteria smegmatis = assay: Antimicrobial spectrum, liquid media, viable cell count; type: cell-based, Mycobacterium smegmatis; settings: saturating concentrations
Method: as §1

E. coli ESS [3] = assay: Bactericidal effect when bound to mouse tissues; type: cell-based, Escherichia coli; settings: 4 μg TA or 20 μg Focusin, 5 h
Method: Two mice were sacrificed by exposure to ether. The bladder, eyes, intestines, lungs, heart, teeth, liver, spleen and kidneys were removed by dissection. Each experimental set consisted of three test tubes. A piece of each tissue type was placed in each of the three test tubes. The amount of tissue per tube were as follows: bladder 1/3, eye 1/2, intestine 1 cm, lung 1/2, heart 1/3, fang tooth 1/2, liver 1/3, spleen 1/3 and kidney 1/2. One test tube contained a control tissue which was treated only with the solvent used for dissolving the antibacterial agent, usually 50% ethanol. The second and third test tubes contained tissues were treated with 4 μg TA or 20 μg Focusin, respectively.
Following application of the antibacterial agent or the control solution, the tissues were allowed to dry in a hood for 30 mins., and then placed in the test tubes.
One milliliter of sterile saline was then added to each test tube and the tubes were then incubated with shaking (50 rpm) at 37° C. for one hour. The amount of antibacterial agent that was released to the saline was measured following chloroform extraction by the disc filter assay.
The tissues were then transferred to exponentially growing cultures of E. coli ESS in NB at a concentration of 10^5 cells/ml. Incubation was at 37° C. and continued for 5 hours, following which the number of viable cells was checked.

E. coli K-12 = assay: Antimicrobial spectrum, liquid media, viable cell count; type: cell-based, Escherichia coli; settings: saturating concentrations
Method: as §1

E. coli ESS [4] = assay: as above; type: cell-based, Escherichia coli; settings: saturating concentrations
Method: as §1

E. coli ESS Kan^r [5] = assay: Sensitivity to combined exposure to light and air (remaining activity by paper disc bioassay); type: physicochemical, Escherichia coli
Method: as §2, §3
100 ng of TA and Focusin dissolved in ethanol were applied to paper filters and allowed to dry in a hood for 15 mins. The filters were then exposed to light from a fluorescent lamp in the hood; the distance from the lamp to the filters was approximately 40 cm. The controls were placed in the dark under a plastic box within the hood.
After exposure of the filters to the light for varying periods of time, the remaining activity of the agents was measured by the paper disc bioassay and the results are shown in the following Table 1: […]

[6] = type: physicochemical
Method: Focusin and TA at concentrations of 3 mg/ml were diluted either in ethanol or in saline containing 1% ethanol to yield a final concentration in each case of 30 μg/ml. The solutions were mixed at 37° C. for one hour under shaking, and then were centrifuged at 5000 g for 10 minutes. Several samples were taken from the supernatants of the tubes and were applied on disc filters in order to determine the concentration of the antibacterial agents in the saline and ethanol solutions, by the paper disc bioassay method.

Staphylococcus aureas = assay: Antimicrobial spectrum, liquid media, viable cell count; type: cell-based, Staphylococcus aureus; settings: saturating concentrations
Method: as §1

[7] = tested on: severe gingivitis and plaque; settings: humans; cited from earlier work

What does the source list for `CCCC1OC(=O)C(C)CC(C)CCCCC(=O)CCCC(CC)C=CC=C(COC)CCC(O)C(O)CC(O)CNC1=O` (stereo not drawn) [TA, reference compound]?
killing (Klebsiella Gr47): 100%; killing (Proteus vulgaris): 100%; killing (Serratia marcescens): 100%; killing (Citrobacter diversus): 100%; killing (Helicobacter pilori): 100%; killing (Salmonella thyphimurium): 60%; killing (Klebsiella sp): 100%; killing (Erwinia herbicola): 100%; killing (Klebsiella pneumoniae): 100%; incubation time after which the strain began to show sensitivity (Staphylococcus albus; saturating concentrations): > 46 h; killing (Staphylococcus albus; saturating concentrations (TA)): 83%; killing (Providencia strautii): 100%; killing (Enterobacter): 100%; killing (Pseudomonas aeruginosa): 0%; killing (Bacillus subtilis): 100%; amount giving an inhibition zone of 11 mm (E. coli ESS Kan^r [1]; zone 11 mm): 64 ng; amount required to obtain a zone of inhibition of about 2 mm (E. coli ESS Kan^r [1]; zone about 2 mm): 7.5 ng; growth inhibition (in words) [2]: capable of inhibiting growth of a variety of Gram-positive and Gram-negative bacteria; mode of growth inhibition (in words) [2]: lysis of growing bacteria as a result of blocking of cell wall synthesis; killing (Mycobacteria smegmatis): 0%; Inhibition % by the treated tissue (E. coli ESS [3]; bladder): 100%; Inhibition % by the treated tissue (E. coli ESS [3]; heart): 100%; Inhibition % by the treated tissue (E. coli ESS [3]; intestine): 99%; Inhibition % by the treated tissue (E. coli ESS [3]; kidney): 100%; Inhibition % by the treated tissue (E. coli ESS [3]; liver): 96%; Inhibition % by the treated tissue (E. coli ESS [3]; lungs): 100%; Inhibition % by the treated tissue (E. coli ESS [3]; spleen): 100%; Inhibition % by the treated tissue (E. coli ESS [3]; teeth): 100%; killing (E. coli K-12): 100%; killing (E. coli ESS [4]): 100%; activity after exposure to light and air (E. coli ESS Kan^r [5]; 0 hours): 100%; activity after exposure to light and air (E. coli ESS Kan^r [5]; 1 hour): 70%; activity after exposure to light and air (E. coli ESS Kan^r [5]; 4 hours): 63%; activity after exposure to light and air (E. coli ESS Kan^r [5]; 6 hours): 26%; activity after exposure to light and air (E. coli ESS Kan^r [5]; 8 hours): 21%; activity after exposure to light and air (E. coli ESS Kan^r [5]; 20 hours): 19%; degradation at combined exposure to light and air (E. coli ESS Kan^r [5]; after 20 hours): 81%; degradation at combined exposure to light and air (E. coli ESS Kan^r [5]; after one hour, 60 min): 30%; solubility in ethanol [6]: completely soluble; solubility in saline ([6]; saline with 1% ethanol, 1 h): about 1.14 μg/ml; killing (Staphylococcus aureas): 100%; effect on gingivitis and plaque (in words) [7]: to treat severe gingivitis and to reduce plaque in humans
